Test results published in DBAASP.
Values after ≈ are worked out from the molar mass of the structure shown.

Assays:
Assay in all cases: ≥ marks a high value that may be exact or a test limit, other limits are often not marked, values filed in µg/mL are converted to µM
Escherichia coli BL21AI = tested on: Escherichia coli BL21AI
[1] = tested on: Micrococcus luteus ATCC 10240
Salmonella typhimurium = tested on: Salmonella typhimurium
Proteus mirabilis = tested on: Proteus mirabilis
Shigella dysenteriae = tested on: Shigella dysenteriae
Bacillus subtilis = tested on: Bacillus subtilis
[2] = tested on: Staphylococcus epidermidis
Saccharomyces cerevisiae = tested on: Saccharomyces cerevisiae
Micrococcus luteus = tested on: Micrococcus luteus
Pseudomonas aeruginosa = tested on: Pseudomonas aeruginosa
Escherichia coli = tested on: Escherichia coli
Candida albicans = tested on: Candida albicans
Serratia marcescens = tested on: Serratia marcescens
[3] = tested on: Escherichia coli DH5alpha
Staphylococcus xylosus = tested on: Staphylococcus xylosus
Staphylococcus aureus = tested on: Staphylococcus aureus
Klebsiella pneumoniae = tested on: Klebsiella pneumoniae
[4] = tested on: Enterococcus faecalis NCTC 12697
[5] = tested on: Staphylococcus aureus ATCC 12493
[6] = tested on: Escherichia coli NCTC 10418
[7] = tested on: Staphylococcus aureus ATCC 25923
Escherichia coli ML-35 = tested on: Escherichia coli ML-35
Bacillus megaterium Bm11 = tested on: Bacillus megaterium Bm11
[8] = tested on: Salmonella enterica subsp. enterica serovar Typhimurium ATCC 14028
Bacillus subtilis 168 = tested on: Bacillus subtilis 168
[9] = tested on: Escherichia coli ATCC 25726
Leuconostoc lactis = tested on: Leuconostoc lactis

Compound CC[C@H](C)[C@H](NC(=O)[C@H](CCCN=C(N)N)NC(=O)[C@H](CCCN=C(N)N)NC(=O)[C@@H]1CCCN1C(=O)[C@@H]1CCCN1C(=O)[C@H](CCCN=C(N)N)NC(=O)[C@@H]1CCCN1C(=O)[C@H](CCCN=C(N)N)NC(=O)[C@@H]1CCCN1C(=O)[C@H](CC(C)C)NC(=O)[C@H](Cc1ccc(O)cc1)NC(=O)[C@@H]1CCCN1C(=O)[C@@H]1CCCN1C(=O)[C@H](CCCCN)NC(=O)[C@H](CC(=O)O)NC(=O)[C@@H](N)C(C)C)C(=O)N[C@@H](Cc1ccc(O)cc1)C(=O)N[C@@H](CC(N)=O)C(=O)N[C@@H](CC(N)=O)C(=O)N[C@@H](CCCN=C(N)N)C(N)=O [VDKPPYLPRPRPPRRIYNNR] has an MIC (Escherichia coli BL21AI) of 3.19 µM (≈ 8 µg/mL) and an MIC [1] of 3.19 µM (≈ 8 µg/mL).
Work on CC[C@H](C)[C@H](NC(=O)CN)C(=O)N[C@@H](CC(C)C)C(=O)N[C@@H](CC(=O)O)C(=O)N[C@H](C(=O)N[C@@H](CC(C)C)C(=O)N[C@@H](CCCCN)C(=O)N[C@@H](CCC(N)=O)C(=O)N[C@@H](Cc1ccccc1)C(=O)N[C@@H](C)C(=O)N[C@@H](CCCCN)C(=O)NCC(=O)N[C@H](C(=O)NCC(=O)N[C@@H](CCCCN)C(=O)N[C@@H](CC(=O)O)C(=O)N[C@@H](CC(C)C)C(=O)N[C@H](C(=O)N[C@@H](CCCCN)C(=O)NCC(=O)N[C@@H](C)C(=O)N[C@@H](C)C(=O)N[C@@H](CCC(N)=O)C(=O)NCC(=O)N[C@H](C(=O)N[C@@H](CC(C)C)C(=O)O)C(C)C)C(C)C)C(C)C)[C@@H](C)O [GILDTLKQFAKGVGKDLVKGAAQGVL] yielded an MIC (Salmonella typhimurium) of 28.5 µM (≈ 75 µg/mL), an MIC (Proteus mirabilis) of 19 µM (≈ 50 µg/mL) and an MIC (Shigella dysenteriae) of 9.52 µM (≈ 25 µg/mL). For the same compound, the MIC (Bacillus subtilis) was 19 µM (≈ 50 µg/mL), the MIC [2] was 28.5 µM (≈ 75 µg/mL) and the MIC (Saccharomyces cerevisiae) was 9.52 µM (≈ 25 µg/mL). It also gave an MIC (Micrococcus luteus) of 0.952 µM (≈ 2.5 µg/mL), an MIC (Pseudomonas aeruginosa) of 19 µM (≈ 50 µg/mL) and an MIC (Escherichia coli) of 9.52 µM (≈ 25 µg/mL). For the same compound, the MIC (Candida albicans) was > 38.1 µM and the MIC (Serratia marcescens) was ≥ 38.1 µM.
Work on CC(C)C[C@H](NC(=O)[C@H](CCCN=C(N)N)NC(=O)[C@@H]1CCCN1C(=O)[C@H](Cc1cnc[nH]1)NC(=O)[C@@H]1CCCN1C(=O)[C@@H](NC(=O)[C@@H]1CCCN1C(=O)[C@H](CCCN=C(N)N)NC(=O)[C@@H]1CCCN1C(=O)[C@H](CO)NC(=O)[C@H](Cc1ccc(O)cc1)NC(=O)[C@@H]1CCCN1C(=O)[C@H](CCCN=C(N)N)NC(=O)[C@@H]1CCCN1C(=O)[C@H](CCCCN)NC(=O)CN)[C@@H](C)O)C(N)=O [GKPRPYSPRPTPHPRL] yielded an MIC (Escherichia coli BL21AI) of 8.62 µM (≈ 16 µg/mL) and an MIC [1] of 2.15 µM (≈ 4 µg/mL).
CC(C)C[C@H](NC(=O)[C@H](CC(C)C)NC(=O)[C@H](CC(C)C)NC(=O)[C@H](CC(C)C)NC(=O)[C@H](CC(C)C)NC(=O)[C@H](CCCCN)NC(=O)[C@H](CCCCN)NC(=O)[C@@H](N)CCCCN)C(=O)N[C@@H](CCCCN)C(=O)N[C@@H](CCCCN)C(=O)N[C@@H](CCCCN)C(=O)O [KKKLLLLLKKK] gave an MIC [3] of 16 µM (≈ 21.6 µg/mL) and an MIC (Staphylococcus xylosus) of 8 µM (≈ 10.8 µg/mL).
With CC(C)C[C@H](NC(=O)[C@H](C)NC(=O)CNC(=O)[C@H](CC(C)C)NC(=O)[C@@H](N)Cc1ccccc1)C(=O)N[C@@H](Cc1ccccc1)C(=O)N[C@@H](CCCCN)C(=O)N[C@@H](Cc1c[nH]c2ccccc12)C(=O)N[C@@H](C)C(=O)N[C@@H](CO)C(=O)N[C@@H](CCCCN)C(=O)O [FLGALFKWASK] the MIC (Staphylococcus aureus) was 9.86 µM (≈ 12.5 µg/mL), the MIC (Salmonella typhimurium) was ≥ 78.9 µM and the MIC (Klebsiella pneumoniae) was 9.86 µM (≈ 12.5 µg/mL). The MIC (Proteus mirabilis) was ≥ 158 µM, the MIC (Shigella dysenteriae) was 19.7 µM (≈ 25 µg/mL) and the MIC (Bacillus subtilis) was 9.86 µM (≈ 12.5 µg/mL). For the same compound, the MIC [2] was 19.7 µM (≈ 25 µg/mL), the MIC (Micrococcus luteus) was ≥ 39.4 µM and the MIC (Pseudomonas aeruginosa) was 158 µM (≈ 200 µg/mL). For the same compound, the MIC (Escherichia coli) was 19.7 µM (≈ 25 µg/mL).
In the case of CC(C)C[C@H](NC(=O)[C@H](C)NC(=O)[C@H](Cc1c[nH]c2ccccc12)NC(=O)[C@H](CCCCN)NC(=O)[C@H](CC(C)C)NC(=O)[C@@H](N)Cc1ccccc1)C(=O)N[C@@H](CCCCN)C(=O)N[C@H](C(=O)N[C@@H](C)C(=O)N[C@@H](C)C(=O)N[C@@H](CCCCN)C(N)=O)C(C)C [FLKWALKVAAK], the MIC [4] is reported as ≥ 512 µM, the MIC [5] is reported as ≥ 512 µM and the MIC [6] is reported as ≥ 512 µM.
In the case of CC(C)C[C@H](NC(=O)[C@H](CCCN=C(N)N)NC(=O)[C@H](CCCN=C(N)N)NC(=O)[C@H](Cc1ccccc1)NC(=O)[C@H](CCCN=C(N)N)NC(=O)CN)C(=O)NCC(=O)N[C@@H](CCCN=C(N)N)C(=O)N[C@@H](CCCCN)C(=O)N[C@@H](Cc1ccccc1)C(=O)N[C@@H](CCCCN)C(=O)N[C@@H](CCCCN)C(=O)N[C@@H](CC(C)C)C(=O)N[C@@H](Cc1ccccc1)C(=O)N[C@@H](CCCCN)C(=O)N[C@@H](CCCCN)C(=O)N[C@@H](Cc1ccc(O)cc1)C(=O)NCC(=O)N1CCC[C@H]1C(=O)O [GRFRRLGRKFKKLFKKYGP], the MIC [7] is reported as 8 µM (≈ 19.1 µg/mL), the MIC (Escherichia coli ML-35) is reported as 4 µM (≈ 9.53 µg/mL) and the MIC (Bacillus megaterium Bm11) is reported as 8 µM (≈ 19.1 µg/mL). The MIC [8] was 8 µM (≈ 19.1 µg/mL).
CC[C@H](C)[C@H](NC(=O)[C@H](CS)NC(=O)[C@H](CCSC)NC(=O)[C@H](C)NC(=O)[C@H](CCCN=C(N)N)NC(=O)[C@@H](N)CC(C)C)C(=O)N[C@@H](CCCCN)C(=O)N[C@@H](Cc1c[nH]c2ccccc12)C(=O)N[C@@H](Cc1c[nH]c2ccccc12)C(=O)N[C@@H](CO)C(=O)NCC(=O)N[C@@H](CCCCN)C(=O)N[C@@H](Cc1cnc[nH]1)C(=O)N1CCC[C@H]1C(=O)N[C@@H](CCCCN)C(=O)O [LRAMCIKWWSGKHPK] gave an MIC (Bacillus subtilis 168) of 7 µM (≈ 12.9 µg/mL).
CC[C@H](C)[C@H](NC(=O)CN)C(=O)N[C@@H](Cc1ccccc1)C(=O)N[C@@H](CO)C(=O)N[C@@H](CCCCN)C(=O)N[C@@H](Cc1ccccc1)C(=O)NCC(=O)NCC(=O)N[C@@H](CCCCN)C(=O)N[C@@H](C)C(=O)N[C@H](C(=O)N[C@@H](CCCCN)C(=O)N[C@@H](CC(N)=O)C(=O)N[C@@H](CC(C)C)C(=O)N[C@@H](Cc1ccccc1)C(=O)N[C@H](C(=O)N[C@@H](CCCCN)C(=O)NCC(=O)N[C@@H](C)C(=O)N[C@@H](CCCCN)C(=O)N[C@@H](CC(N)=O)C(=O)N[C@H](C(=O)NCC(=O)N[C@@H](CCCCN)C(=O)N[C@@H](CCC(=O)O)C(=O)N[C@H](C(=O)NCC(=O)N[C@@H](CCSC)C(=O)N[C@@H](CC(=O)O)C(=O)N[C@H](C(=O)N[C@H](C(=O)N[C@@H](CCCN=C(N)N)C(=O)N[C@H](C(=O)NCC(=O)N[C@H](C(=O)N[C@@H](CC(=O)O)C(=O)N[C@H](C(=O)N[C@@H](C)C(=O)NCC(=O)N[C@H]1CSSC[C@@H](C(=O)O)NC(=O)[C@H](CCC(=O)O)NC(=O)CNC(=O)[C@H](CCCCN)NC(=O)[C@H]([C@@H](C)CC)NC(=O)[C@H](CCCCN)NC1=O)C(C)C)[C@@H](C)CC)[C@@H](C)O)[C@@H](C)CC)C(C)C)C(C)C)[C@@H](C)CC)[C@@H](C)CC)[C@@H](C)CC [GIFSKFGGKAIKNLFIKGAKNIGKEVGMDVIRTGIDVAGCKIKGEC] showed an MIC [7] of 13 µM (≈ 62.5 µg/mL) and an MIC [9] of 13 µM (≈ 62.5 µg/mL).
Work on CC[C@H](C)[C@H](NC(=O)[C@H](CO)NC(=O)[C@H](CO)NC(=O)[C@@H](NC(=O)[C@H](CC(C)C)NC(=O)CN)C(C)C)C(=O)NCC(=O)N[C@@H](CCCCN)C(=O)N[C@@H](C)C(=O)N[C@@H](CC(C)C)C(=O)NCC(=O)NCC(=O)N[C@@H](CC(C)C)C(=O)N[C@@H](CC(C)C)C(=O)N[C@H](C(=O)N[C@@H](CC(=O)O)C(=O)N[C@H](C(=O)N[C@H](C(=O)N[C@@H](CCCCN)C(=O)N[C@@H](CO)C(=O)N[C@@H](CCCCN)C(=O)NCC(=O)N[C@@H](CCC(N)=O)C(=O)N1CCC[C@H]1C(=O)N[C@@H](C)C(=O)O)C(C)C)C(C)C)C(C)C [GLVSSIGKALGGLLVDVVKSKGQPA] yielded an MIC (Leuconostoc lactis) of 20.9 µM (≈ 50 µg/mL).
With CC[C@H](C)[C@H](NC(=O)[C@@H]1CCCN1C(=O)[C@H](CCCN=C(N)N)NC(=O)[C@@H]1CCCN1C(=O)[C@H](Cc1cnc[nH]1)NC(=O)[C@H](CO)NC(=O)[C@@H](NC(=O)[C@@H]1CCCN1C(=O)[C@H](CCCN=C(N)N)NC(=O)[C@@H]1CCCN1C(=O)[C@H](CO)NC(=O)[C@H](Cc1ccc(O)cc1)NC(=O)[C@@H]1CCCN1C(=O)[C@H](CCCN=C(N)N)NC(=O)[C@@H]1CCCN1C(=O)[C@H](CCCCN)NC(=O)CN)[C@@H](C)O)C(=O)N[C@@H](CCCN=C(N)N)C(N)=O [GKPRPYSPRPTSHPRPIR] the MIC (Escherichia coli BL21AI) was ≥ 61 µM and the MIC [1] was 3.81 µM (≈ 8 µg/mL).
